Entries after “also recorded” stand apart in the source; their conditions may differ. Where two headings read alike, the source gives them in different places.
Tests used:
[1] = Pharmacokinetics after single IV bolus; settings: for Co: back-extrapolated; for Plasma concentration range during anesthetic recovery: after IV bolus, approximate
[2] = Pharmacokinetics after single bolus followed by 2-h infusion
dogs [3] = assay: Loss of righting reflexes; type: in vivo, beagle dog
dogs [4] = type: in vivo, beagle dog
dogs [5] = assay: Pharmacodynamic modeling: plasma concentration vs anesthesia score; type: in vivo, beagle dog; settings: bolus, n = 3 dogs; for γ (slope parameter): sigmoid Emax fit; for EC anesthesia score 3: venous plasma concentration when anesthesia score is 3
dogs [6] = assay: Observation of myoclonus during and after hypnotic infusion; settings: for Persistence of myoclonus in the postinfusion period: after 2-h infusions; for Incidence of myoclonus during infusion: for all studies
[7] = system: adrenocortical responsiveness to ACTH1-24 stimulation; assay: Adrenocortical recovery after hypnotic infusion; settings: for Plasma cortisol concentrations compared to vehicle group over time: after 2-h infusion, ACTH1-24 stimulated; for Shared Hill coefficient of in vivo adrenocortical concentration-response curves: both data sets fit to a single Hill coefficient
dogs [8] = assay: Pilot experiments of midazolam dosing in dogs; type: in vivo, beagle dog; settings: 0.1 - 0.2 mg/kg intravenous bolus per dose
[9] = Stability testing of frozen formulated drug; type: physicochemical; settings: 8 mg/ml in 20% sulfobutylether-β-cyclodextrin pH 7.4, stored frozen at -20°C
rats [10] = settings: cited from earlier work
rats [11] = settings: cited from earlier work; remark: listed apart in the source
[12] = metabolite after IV bolus of parent, n = 3 dogs
[13] = metabolite, bolus followed by 2-h infusion of parent, n = 4 dogs
[14] = CPMM vs etomidate 2-h infusion study, n = 4 dogs per group
[15] = IV bolus (CPMM 4 mg/kg, etomidate 2 mg/kg), n = 3 dogs
[16] = parent drug, IV bolus, n = 3 dogs, time zero to infinity
[17] = CPMM vs propofol 2-h infusion study, n = 4 dogs/group
[18] = parent drug, IV bolus, n = 3 dogs
[19] = bolus followed by 2-h infusion, dogs

Molecule: CC(c1ccccc1)n1cncc1C(=O)O (centres unmarked) [Etomidate Metabolite]
- Plasma concentration in final blood samples 120 min after administration ([1]; after etomidate 2 mg/kg bolus, dogs): 708 ± 75 ng/mL
- AUC [1, 12]: 236,000 ± 18,400 min·ng ml^−1
- Cmax [1, 12]: 2,370 ± 347 ng·ml^−1
- t1/2 [1, 12]: 61.4 ± 9.13 min
- tmax [1, 12]: 18.3 ± 18.9 min
- Cmax [2, 13]: 1,680 ±253 ng/ml
- t1/2 [2, 13]: 69.3 ± 23.4 min

Molecule: CCOC(=O)c1cncn1[C@H](C)c1ccccc1 [Etomidate, reference compound]
- Duration of LoRR (dogs [3]; 0.5 mg/kg IV bolus, n = 3 dogs): 2.7 ± 0.8 min
- Duration of LoRR (dogs [3]; 1.9 mg/kg IV bolus, n = 3 dogs): 17 ± 5 min
- Relative hypnotic potency CPMM vs etomidate (dogs [3]; dogs): approximately twice as potent as CPMM
- Bolus doses that induced LoRR in all dogs (dogs [3]; dogs, IV bolus): 0.5 to 1.9 mg/kg
- Slope of duration of LoRR vs logarithm of dose (dogs [3]; dogs, IV bolus): 24
- X-intercept of duration of LoRR vs logarithm of dose (dogs [3]; dogs, IV bolus): 0.37 mg/kg
- Time after bolus administration of anesthetic recovery (dogs [4]; CPMM 4 mg/kg or etomidate 2 mg/kg bolus, see fig. 3B): 9.0 to 13.8 min
- γ (slope parameter) (dogs [5]): 1.7 0.9 – 2.4
- EC anesthesia score 1 (dogs [5]; venous plasma concentration when anesthesia score is 1): 1,607 1,026 – 2,517 ng/ml
- EC anesthesia score 3 (dogs [5]): 5,952 4,392 – 8,066 ng/ml
- Dogs with myoclonus during infusion (dogs [6]; [14]): 2 dogs
- Persistence of myoclonus in the postinfusion period (dogs [6]; dogs): up to approximately an hour
- Incidence of myoclonus during infusion (dogs [6]): 2/4
- Co [1, 15]: 10,700 ± 1,440 ng/ml
- Decrease of plasma concentration from initial to final blood sample (2 h) ([1]; IV bolus, dogs): 1.5 orders of magnitude
- Plasma concentration at 10 min as percentage of initial blood sample ([1]; IV bolus, dogs): 25%
- Plasma concentration range during anesthetic recovery ([1]; dogs): approximately 1,000 ng/ml
- concentration at 30 s ([1]; beagle, dog, in vivo, 2 mg/kg): 9080 ng/mL
- concentration at 10 min ([1]; beagle, dog, in vivo, 2 mg/kg): 2230 ng/mL
- AUC ([1]; beagle, dog, in vivo, iv, 2 mg/kg, AUC, parent drug, IV bolus, n = 3 dogs, time zero to infinity): 1930 ng·h/mL
- AUC [1, 16]: 139,000 ± 26,300 min-ng ml^−1
- Cmax ([2]; beagle, dog, in vivo): 2050 ng/mL
- Plasma cortisol concentrations compared to vehicle group over time ([7]; dogs): remained significantly lower than those in the vehicle group throughout the duration of the study (>300 min)
- Shared Hill coefficient of in vivo adrenocortical concentration-response curves [7]: -2.0

Molecule: Cc1ncc2n1-c1ccc(Cl)cc1C(c1ccccc1F)=NC2 [midazolam]
- Sedative effect (dogs [8]): no discernable sedative effect
- Effect on myoclonus (dogs [6]; 0.1 - 0.2 mg/kg intravenous bolus per dose during 2-h hypnotic infusions, dogs): effectively reduced the myoclonus

Molecule: CC(C)c1cccc(C(C)C)c1O [propofol]
- Dogs with myoclonus during infusion (dogs [6]; [17]): two dogs had myoclonus

Molecule: cyclopropyl-methoxycarbonyl metomidate [CPMM]
- Duration of LoRR (dogs [3]; 1 mg/kg IV bolus, n = 3 dogs): 1.8 ± 0.6 min
- Duration of LoRR (dogs [3]; 12 mg/kg IV bolus, n = 4 dogs): 10.9 ± 0.7 min
- Relative hypnotic potency CPMM vs etomidate (dogs [3]; dogs): half as potent; also recorded: approximately half that of etomidate
- Bolus doses that induced LoRR in all dogs (dogs [3]; dogs, IV bolus): ≥ 1 mg/kg
- Slope of duration of LoRR vs logarithm of dose (dogs [3]; dogs, IV bolus): 9.9
- X-intercept of duration of LoRR vs logarithm of dose (dogs [3]; dogs, IV bolus): 0.88 mg/kg
- LoRR at lower doses (dogs [3]; dogs, IV bolus 0.25 mg/kg or 0.5 mg/kg): failed to induce LoRR in any dog
- Time to induction of LoRR (dogs [3]; dogs, IV bolus at doses ≥1 mg/kg): < 15 s
- ED50 for loss of righting reflexes (dogs [3]; dogs, IV bolus, approximate value from Hill fit): ~ 0.8 mg/kg
- Time to recover from anesthesia score 3 to score 0 (dogs [4]; bolus followed by 2-h infusion): 8 ± 3 min
- Time to recover from anesthesia score 3 to score 2 (dogs [4]; bolus followed by 2-h infusion): 4.4 ± 1.3 min
- Dependence of hypnotic recovery times on infusion duration (dogs [4]; bolus vs bolus plus 2-h infusion): independent of infusion duration
- Recovery times from anesthesia score 3 to all lower scores compared to etomidate (dogs [4]; single bolus CPMM 4 mg/kg vs etomidate 2 mg/kg): significantly shorter
- Time to recover from anesthesia score 3 to score 0 (dogs [4]; single bolus only (4 mg/kg)): 11 ± 3 min
- Time to recover from anesthesia score 3 to score 1 (dogs [4]; single bolus only (4 mg/kg)): 5.5 ± 0.7 min
- Time to recover from anesthesia score 3 to score 2 (dogs [4]; single bolus only (4 mg/kg)): 4.3 ± 1.2 min
- γ (slope parameter) (dogs [5]): 1.3 0.7 – 1.9
- EC anesthesia score 3 (dogs [5]): 2,798 1,840 – 4,256 ng/ml
- Stability of formulated drug [9]: no significant degradation over time
- Hypnotic ED50 (rats [10]): ~0.69 mg/kg
- Slope of duration of hypnosis vs logarithm of dose (rats [10]): 6.9
- Hypnotic recovery time following 2-h continuous infusion (rats [11]): 4.2 min
- Dogs with myoclonus during infusion (dogs [6]; [14]): 4 dogs
- Dogs with myoclonus during infusion (dogs [6]; [17]): all four dogs had myoclonus
- Persistence of myoclonus in the postinfusion period (dogs [6]; dogs): ceased within several minutes
- Incidence of myoclonus during infusion (dogs [6]): 8/8
- Plasma concentration in initial blood sample ([1]; 30 s after IV bolus (CPMM 4 mg/kg, etomidate 2 mg/kg), n = 3 dogs): 4,130 ± 640 ng/ml
- Plasma concentration 10 min after administration [1, 15]: 330 ± 41 ng/mL
- Co [1, 15]: 5,180 ± 1,120 ng/ml
- Decrease of plasma concentration from initial to final blood sample (2 h) ([1]; IV bolus, dogs): decreased by four orders of magnitude
- Plasma concentration at 10 min as percentage of initial blood sample ([1]; IV bolus, dogs): 8%
- Plasma concentration range during anesthetic recovery ([1]; dogs): approximately 500 ng/ml
- Normalized plasma concentration as percentage of that of etomidate ([1]; one hour after hypnotic bolus, dogs): 7%
- CL [1, 18]: 211 ± 26 mL/min/kg
- Vss [1, 18]: 1,880 ± 569 ml·kg^−1
- t1/2 ([1]; parent drug, IV bolus, n = 3 dogs, apparent terminal half-life): 16.1 ± 2.99 min
- AUC [1, 16]: 19,200 ± 2,590 min-ng ml^−1
- Clearance relative to etomidate (fold higher) ([1]; single bolus, dogs): 14 X
- Terminal elimination half-life relative to etomidate ([1]; single bolus, dogs): 27%
- Vss relative to total body water volume in dogs (600 ml/kg) ([1]; single bolus, dogs): 3 X
- Normalized plasma concentration as percentage of that of etomidate ([1]; ten minutes after hypnotic bolus, dogs): 33%
- Decrease of plasma concentration from 30 to 60 min after the infusion ended [2, 19]: 22%
- Half-life of decline beyond 30 min after infusion [2, 19]: ~ 90 min
- Adrenal response to the second ACTH challenge compared to vehicle control ([7]; 180 min postinfusion, n = 4 dogs/group): normal adrenal response
- Plasma cortisol concentrations compared to vehicle group over time ([7]; dogs): not significantly different from controls for all time points longer than 120 min after infusion termination
- Half-time of adrenocortical recovery (normalized plasma cortisol) ([7]; after bolus plus 2-h infusion, n = 4 dogs): 215 min
- Shared Hill coefficient of in vivo adrenocortical concentration-response curves [7]: -2.0
- ACTH-stimulated plasma cortisol concentration, fold higher vs etomidate group ([7]; equivalent postinfusion time points after 2-h infusion, dogs): 4- to 27 fold
- In vivo IC50 for suppression of adrenocortical responsiveness to ACTH1-24 ([7]; plasma hypnotic concentration, dogs, Hill fit, estimated): 0.027 µg/mL
